A short description of data set [1]: reversed-phase LC retention time (C18, 15 min MeOH gradient); higher = more hydrophobic / later elution. The method, then: (§1)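 Reference mixture of environmental contaminants analysed by RP-LC (BEH C18, 50 °C; ESI+ with water/MeOH plus formic acid and ammonium formate, ESI- with ammonium bicarbonate) coupled to a timsTOF Pro 2 with trapped ion mobility in nitrogen (ramp/accumulation 100 ms). CCS was calibrated with Agilent tune mix (CCS compendium) and averaged over five injections at 0.5-500 ng/mL. The table reports the lowest-CCS (putative monomer) peak; retention times are on the same gradient.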

Data set [2] in a line: collision cross section (TIMS, N2 drift gas) of the primary ion; higher = larger gas-phase ion size. The method, then: as §1
Where [3] appears, read: ionization mode: ESI-, ion species: [M-H]-.
Where [4] appears, read: ionization mode: ESI+, ion species: [M+H]+.
Setting [5] is: ionization mode: ESI+, ion species: [M]+.

In the case of `C[C@]12CC[C@@H]3c4ccc(O)cc4CC[C@H]3[C@@H]1CC[C@H]2O` [17-alpha-Estradiol], the “reversed-phase LC retention time” value in data set [1] (setting [3]) was 14.5 min. In data set [2] (setting [3]), this compound yielded a collision cross section of 173.91 Å².
On the same counts, the results for `C#C[C@]1(O)CC[C@H]2[C@@H]3CCc4cc(O)ccc4[C@H]3CC[C@@]21C` [17-alpha-Ethinylestradiol] are 14.3 min and 182.24 Å².
For the compound `C[C@]12CC[C@@H]3c4ccc(O)cc4CC[C@H]3[C@@H]1CC[C@@H]2O` [17-beta-Estradiol], the “reversed-phase LC retention time” value in data set [1] (setting [3]) was 14.5 min. In data set [2] (setting [3]), this compound gave a collision cross section of 173.91 Å².
For the compound `CC(=O)C1(O)CCC2C3CCC4=CC(=O)CCC4(C)C3CCC21C` (stereo not drawn) [17alpha-Hydroxyprogesterone], the “reversed-phase LC retention time” value came to 14.5 min in data set [1] (setting [4]) and 14.8 min in data set [1] (setting [3]). Also, the collision cross section in data set [2] (setting [4]) is on record as 183.52 Å²; in data set [2] (setting [3]) it was 185.03 Å².
Consider `C[C@]12CCC(=O)C=C1CC[C@@H]1[C@@H]2CC[C@@]2(C)[C@H]1CC[C@]2(C)O` [17alpha-Methyltestosterone], for which the “reversed-phase LC retention time” value in data set [1] (setting [4]) was found to be 14.7 min. For the same compound, the collision cross section in data set [2] (setting [4]) was found to be 178.22 Å².
As for `CC12CCC(=O)C=C1CCC1C2CCC2(C)C(C(=O)CO)CCC12` (configuration not stated) [21-Hydroxyprogesterone], in data set [1] (setting [4]), the “reversed-phase LC retention time” value came to 14.5 min. In data set [2] (setting [4]), this compound came in with a collision cross section of 183.52 Å².
Consider `C[N+](C)(C)CC(O)CCl` (configuration not stated) [(3-Chloro-2-hydroxypropyl)trimethylammonium], for which the “reversed-phase LC retention time” value in data set [1] (setting [5]) amounted to 1.03 min. Besides, in data set [2] (setting [5]), the collision cross section stood at 127.94 Å².
`O=C(O)Cc1ccc(S(=O)(=O)O)cc1` [(4-Sulfophenyl)acetic acid]: the “reversed-phase LC retention time” value in data set [1] (setting [3]) was 0.96 min. The collision cross section in data set [2] (setting [3]) turned out to be 135.07 Å².
Regarding `COC[P+](c1ccccc1)(c1ccccc1)c1ccccc1` [(Methoxymethyl)triphenylphosphonium], the “reversed-phase LC retention time” value in data set [1] (setting [5]) was determined as 10.6 min. In data set [2] (setting [5]), this compound yielded a collision cross section of 170.42 Å².
`C[C@@H]1NC(C)(C)CO[C@@]1(O)c1cccc(Cl)c1` [(S,S)-Hydroxybupropion]: the entries for the “reversed-phase LC retention time” value in data set [1] (setting [4]) and in data set [1] (setting [3]) were 9.89 min and 13.5 min, respectively. The collision cross section in data set [2] (setting [4]) is listed as 159.75 Å²; in data set [2] (setting [3]), 159.63 Å².
As to `Nc1nc(NC2CC2)c2ncn([C@H]3C=C[C@@H](CO)C3)c2n1` [Abacavir], in data set [1] (setting [4]), the “reversed-phase LC retention time” value stood at 8 min. For the same compound, the collision cross section in data set [2] (setting [4]) stood at 168.31 Å².
As for `CC1=CC(=O)NS(=O)(=O)O1` [Acesulfame], the “reversed-phase LC retention time” value in data set [1] (setting [3]) amounted to 2.26 min. The same compound came in with a collision cross section in data set [2] (setting [3]) of 122.01 Å².
Turning to `CC(=O)Nc1ccc(O)cc1` [Acetaminophen], the “reversed-phase LC retention time” value in data set [1] (setting [4]) came to 5.38 min. The compound further showed a collision cross section in data set [2] (setting [4]) of 130.01 Å².
On to `CC(=NC#N)N(C)Cc1ccc(Cl)nc1` [Acetamiprid], for which the “reversed-phase LC retention time” value in data set [1] (setting [4]) was 9.29 min; in data set [1] (setting [3]), 9.38 min. In addition, the collision cross section was 153.22 Å² in data set [2] (setting [4]) and 148.19 Å² in data set [2] (setting [3]).
`CCOCN(C(=O)CCl)c1c(C)cccc1CC` [Acetochlor]: the “reversed-phase LC retention time” value in data set [1] (setting [4]) was determined as 15 min. The compound also displayed a collision cross section in data set [2] (setting [4]) of 158.08 Å².
Turning to `CC(=O)Nc1ccc(S(=O)(=O)Nc2cc(C)on2)cc1` [Acetylsulfamethoxazole], the entries for the “reversed-phase LC retention time” value in data set [1] (setting [4]) and in data set [1] (setting [3]) were 9.53 min and 6.92 min, respectively. Besides, the collision cross section in data set [2] (setting [4]) is on record as 169.12 Å²; in data set [2] (setting [3]), 165.1 Å².
For `c1ccc2nc3ccccc3cc2c1` [Acridine], the “reversed-phase LC retention time” value in data set [1] (setting [4]) worked out at 8.73 min. This compound returned a collision cross section in data set [2] (setting [4]) of 132.33 Å².
For `O=c1c2ccccc2[nH]c2ccccc12` [Acridone], in that order: 11.1 min and 136.53 Å².
In the case of `Nc1nc2c(ncn2COCCO)c(=O)[nH]1` [Acyclovir], the entries for the “reversed-phase LC retention time” value in data set [1] (setting [4]) and in data set [1] (setting [3]) were 3.16 min and 3.13 min, respectively. In addition, the results for the collision cross section in data set [2] (setting [4]) and in data set [2] (setting [3]) were 148.26 Å² and 146.78 Å², respectively.
Turning to `COc1cc2c(c3oc(=O)c4c(c13)CCC4=O)C1C=COC1O2` (configuration not stated) [Aflatoxin B1], the “reversed-phase LC retention time” value in data set [1] (setting [4]) amounted to 11.4 min. This compound also had a collision cross section in data set [2] (setting [4]) of 165.23 Å².
As to `CCCSc1ccc2[nH]c(NC(=O)OC)nc2c1` [Albendazole], the “reversed-phase LC retention time” value worked out at 13.1 min in data set [1] (setting [4]) and 14.2 min in data set [1] (setting [3]). In addition, the values for the collision cross section in data set [2] (setting [4]) and in data set [2] (setting [3]) were 165.21 Å² and 165.62 Å², respectively.
For `C[C@]12CCC(=O)C=C1CC[C@@H]1[C@@H]2[C@@H](O)C[C@]2(C=O)[C@@H](C(=O)CO)CC[C@@H]12` [Aldosterone], in that order: 16.5 min, 11.9 min, 204.03 Å² and 182.17 Å².
Regarding `NC12CC3CC(CC(C3)C1)C2` [Amantadine], the “reversed-phase LC retention time” value in data set [1] (setting [4]) came to 8.82 min. Moreover, the collision cross section in data set [2] (setting [4]) was found to be 138.51 Å².
For `CC(=O)OCC(=O)[C@@]12OC3(CCCC3)O[C@@H]1C[C@H]1[C@@H]3CCC4=CC(=O)C=C[C@]4(C)[C@@]3(F)[C@@H](O)C[C@@]12C` [Amcinonide], in that order: 15.6 min and 217.58 Å².

(Values after the supplement of paper PMC12613149.)
